Values joined by “and” are separate entries in the source; they are usually repeats but may differ in a detail not shown here. Equal values may be shown once. Toxic doses and inconclusive results are not listed. The calls were made as follows: active = survival T/C of 150% or more; inactive = T/C below 125% in these data.
Test system: CD2F1 mice, L1210 leukemia ip, survival T/C
Assay: NCI In Vivo Anticancer Drug Screen. Data for tumor model L1210 Leukemia (intraperitoneal) in CD2F1 (CDF1) mice
Details: higher = longer survival
Method in brief: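 Read-out first: treated-group measurement over vehicle-control measurement, expressed as a ratio. Animals bore a transplanted tumor line and were dosed with compound or vehicle.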

[1] = endpoint: mean survival time, dose: 100.0 mg/kg/injection, schedule: Q01DX009 (ip), vehicle: saline with Tween-80
[2] = endpoint: mean survival time, dose: 200.0 mg/kg/injection, schedule: Q01DX009 (ip), vehicle: saline with Tween-80
[3] = endpoint: mean survival time, dose: 400.0 mg/kg/injection, schedule: Q01DX009 (ip), vehicle: saline with Tween-80
[4] = endpoint: mean survival time, dose: 100.0 mg/kg/injection, schedule: Q04DX003 (ip), vehicle: saline with Tween-80
[5] = endpoint: mean survival time, dose: 200.0 mg/kg/injection, schedule: Q04DX003 (ip), vehicle: saline with Tween-80
[6] = endpoint: mean survival time, dose: 50.0 mg/kg/injection, schedule: Q01DX009 (ip), vehicle: saline with Tween-80
[7] = endpoint: mean survival time, dose: 100.0 mg/kg/injection, schedule: Q01DX001 (ip), vehicle: saline with Tween-80
[8] = endpoint: mean survival time, dose: 200.0 mg/kg/injection, schedule: Q01DX001 (ip), vehicle: saline with Tween-80
[9] = endpoint: mean survival time, dose: 400.0 mg/kg/injection, schedule: Q01DX001 (ip), vehicle: saline with Tween-80
[10] = endpoint: mean survival time, dose: 100.0 mg/kg/injection, schedule: Q01DX001 (ip), vehicle: Klucel (hydroxypropylcellulose) (HPC)
[11] = endpoint: mean survival time, dose: 200.0 mg/kg/injection, schedule: Q01DX001 (ip), vehicle: Klucel (hydroxypropylcellulose) (HPC)

Measured: T/C

N#C/C(=C1C=C/C(=N/O)C(Br)=C/1)c1ccccc1
inactive: [1] 108 % of control | [2] 96 % of control | [3] 95 % of control

CC(C)(C)C(=O)CC(=O)C(C)(C)C.CC(C)(C)C(=O)CC(=O)C(C)(C)C.CC(C)(C)C(=O)CC(=O)C(C)(C)C.[Sc]
inactive: endpoint: mean survival time, dose: 50.0 mg/kg/injection, schedule: Q04DX003 (ip), vehicle: saline with Tween-80 94 % of control | [4] 94 % of control and 100 % of control | [5] 97 % of control and 104 % of control | endpoint: mean survival time, dose: 400.0 mg/kg/injection, schedule: Q04DX003 (ip), vehicle: saline with Tween-80 95 % of control

CC(C)(C)[Si](OP(N)(=O)N(CCCl)CCCl)(c1ccccc1)c1ccccc1 (centres undefined)
inactive: endpoint: mean survival time, dose: 15.6 mg/kg/injection, schedule: Q01DX001 (ip), vehicle: distilled water + Tween-80 102 % of control | endpoint: mean survival time, dose: 31.3 mg/kg/injection, schedule: Q01DX001 (ip), vehicle: distilled water + Tween-80 110 % of control | endpoint: mean survival time, dose: 62.5 mg/kg/injection, schedule: Q01DX001 (ip), vehicle: distilled water + Tween-80 110 % of control | endpoint: mean survival time, dose: 125.0 mg/kg/injection, schedule: Q01DX001 (ip), vehicle: distilled water + Tween-80 122 % of control | endpoint: mean survival time, dose: 250.0 mg/kg/injection, schedule: Q01DX001 (ip), vehicle: distilled water + Tween-80 111 % of control | endpoint: mean survival time, dose: 500.0 mg/kg/injection, schedule: Q01DX001 (ip), vehicle: distilled water + Tween-80 117 % of control

c1ccc2c(c1)[nH]c1c2cc[n+]2cc3c(cc12)CCCC3
inactive: endpoint: mean survival time, dose: 5.0 mg/kg/injection, schedule: Q01DX001 (ip), vehicle: saline 100 % of control | endpoint: mean survival time, dose: 10.0 mg/kg/injection, schedule: Q01DX001 (ip), vehicle: saline 101 % of control | endpoint: mean survival time, dose: 20.0 mg/kg/injection, schedule: Q01DX001 (ip), vehicle: saline 106 % of control | endpoint: mean survival time, dose: 40.0 mg/kg/injection, schedule: Q01DX001 (ip), vehicle: saline 109 % of control

CCCCC1=C(P(=O)(OCC)OCC)C(F)(F)C(F)(F)C1(F)F
inactive: endpoint: mean survival time, dose: 75.0 mg/kg/injection, schedule: Q01DX001 (ip), vehicle: other 98 % of control | endpoint: mean survival time, dose: 150.0 mg/kg/injection, schedule: Q01DX001 (ip), vehicle: other 86 % of control | endpoint: mean survival time, dose: 300.0 mg/kg/injection, schedule: Q01DX001 (ip), vehicle: other 100 % of control

CCCC(=O)Nc1ncnc2c1[nH]c(=O)n2C1OC2COP(=O)(O)OC2C1O (centres undefined)
inactive: endpoint: mean survival time, dose: 6.25 mg/kg/injection, schedule: Q01DX005 (ip), vehicle: water 97 % of control | endpoint: mean survival time, dose: 12.5 mg/kg/injection, schedule: Q01DX005 (ip), vehicle: water 97 % of control | endpoint: mean survival time, dose: 25.0 mg/kg/injection, schedule: Q01DX005 (ip), vehicle: water 93 % of control | endpoint: mean survival time, dose: 50.0 mg/kg/injection, schedule: Q01DX005 (ip), vehicle: water 93 % of control | endpoint: mean survival time, dose: 100.0 mg/kg/injection, schedule: Q01DX005 (ip), vehicle: water 95 % of control

COc1cccc2c1C(=O)c1c(OC)cccc1C2=O
inactive: endpoint: mean survival time, dose: 25.0 mg/kg/injection, schedule: Q01DX005 (ip), vehicle: other 104 % of control | endpoint: mean survival time, dose: 50.0 mg/kg/injection, schedule: Q01DX005 (ip), vehicle: other 101 % of control | endpoint: mean survival time, dose: 100.0 mg/kg/injection, schedule: Q01DX005 (ip), vehicle: other 101 % of control | endpoint: mean survival time, dose: 200.0 mg/kg/injection, schedule: Q01DX005 (ip), vehicle: other 97 % of control | endpoint: mean survival time, dose: 400.0 mg/kg/injection, schedule: Q01DX005 (ip), vehicle: other 93 % of control

C=CCNc1nc2c(s1)CCc1cc(OC)c(OC)cc1-2
inactive: endpoint: mean survival time, dose: 12.5 mg/kg/injection, schedule: Q01DX009 (ip), vehicle: saline with Tween-80 92 % of control and 97 % of control | endpoint: mean survival time, dose: 25.0 mg/kg/injection, schedule: Q01DX009 (ip), vehicle: saline with Tween-80 95 % of control and 101 % of control | [6] 97 % of control and 98 % of control | [1] 97 % of control and 101 % of control | [2] 97 % of control and 101 % of control | [3] 106 % of control

Cc1ccc2c(c1)CN(C13CC4CC(CC(C4)C1)C3)CO2
inactive: [1] 96 % of control | [2] 96 % of control | [3] 97 % of control

NCCCC(N)(C(=O)O)C(F)F (centres undefined)
inactive: endpoint: median survival time, dose: 50.0 mg/kg/injection, schedule: Q01DX009 (ip), vehicle: distilled water + alcohol 102 % of control | endpoint: median survival time, dose: 100.0 mg/kg/injection, schedule: Q01DX009 (ip), vehicle: distilled water + alcohol 102 % of control | endpoint: median survival time, dose: 200.0 mg/kg/injection, schedule: Q01DX009 (ip), vehicle: distilled water + alcohol 105 % of control | endpoint: median survival time, dose: 400.0 mg/kg/injection, schedule: Q01DX009 (ip), vehicle: distilled water + alcohol 113 % of control | endpoint: median survival time, dose: 800.0 mg/kg/injection, schedule: Q01DX009 (ip), vehicle: distilled water + alcohol 103 % of control | endpoint: median survival time, dose: 1.0 % drug in feed or water or air, schedule: Q#C X 1 (adlb), vehicle: water 103 % of control | endpoint: median survival time, dose: 3.0 % drug in feed or water or air, schedule: Q#C X 1 (adlb), vehicle: water 116 % of control

Oc1ccc(CCNCc2cc3c(cc2Br)OCO3)cc1
inactive: [7] 104 % of control | [8] 96 % of control | [9] 104 % of control

CCOC(=O)C1(C(=O)OCC)CCC(OCC)N1C(=O)c1ccccc1[N+](=O)[O-] (centres undefined)
inactive: [10] 100 % of control | [11] 92 % of control | endpoint: mean survival time, dose: 400.0 mg/kg/injection, schedule: Q01DX001 (ip), vehicle: Klucel (hydroxypropylcellulose) (HPC) 92 % of control

CS(=O)(=O)c1cc(C(F)(F)F)cc([N+](=O)[O-])c1Cl
inactive: [6] 103 % of control | [1] 103 % of control | [4] 97 % of control | [5] 94 % of control

Cn1c(=O)c2c(nc(NCCCO)n2C)n(C)c1=O
inactive: endpoint: mean survival time, dose: 12.5 mg/kg/injection, schedule: Q01DX005 (ip), vehicle: distilled water + Tween-80 100 % of control | endpoint: mean survival time, dose: 25.0 mg/kg/injection, schedule: Q01DX005 (ip), vehicle: distilled water + Tween-80 94 % of control | endpoint: mean survival time, dose: 50.0 mg/kg/injection, schedule: Q01DX005 (ip), vehicle: distilled water + Tween-80 94 % of control | endpoint: mean survival time, dose: 100.0 mg/kg/injection, schedule: Q01DX005 (ip), vehicle: distilled water + Tween-80 94 % of control | endpoint: mean survival time, dose: 200.0 mg/kg/injection, schedule: Q01DX005 (ip), vehicle: distilled water + Tween-80 98 % of control

CCCCN1CCCCC1C(=O)Nc1c(C)cccc1C (centres undefined)
inactive: endpoint: mean survival time, dose: 9.5 mg/kg/injection, schedule: Q01DX001 (ip), vehicle: saline 102 % of control | endpoint: mean survival time, dose: 19.0 mg/kg/injection, schedule: Q01DX001 (ip), vehicle: saline 102 % of control | endpoint: mean survival time, dose: 38.0 mg/kg/injection, schedule: Q01DX001 (ip), vehicle: saline 100 % of control

COc1cc(C2=N/C(=C\c3ccc(Cl)c(Cl)c3)C(=O)O2)cc(OC)c1OC
inactive: endpoint: mean survival time, dose: 100.0 mg/kg/injection, schedule: Q04DX002 (ip), vehicle: saline with Tween-80 114 % of control | endpoint: mean survival time, dose: 200.0 mg/kg/injection, schedule: Q04DX002 (ip), vehicle: saline with Tween-80 95 % of control | endpoint: mean survival time, dose: 400.0 mg/kg/injection, schedule: Q04DX002 (ip), vehicle: saline with Tween-80 100 % of control

CCCCOCCOCCOCc1cc2c(cc1CCC)OCO2
inactive: endpoint: mean survival time, dose: 50.0 mg/kg/injection, schedule: Q01DX009 (ip), vehicle: Klucel (hydroxypropylcellulose) (HPC) 96 % of control | endpoint: mean survival time, dose: 100.0 mg/kg/injection, schedule: Q01DX009 (ip), vehicle: Klucel (hydroxypropylcellulose) (HPC) 89 % of control | endpoint: mean survival time, dose: 200.0 mg/kg/injection, schedule: Q01DX009 (ip), vehicle: Klucel (hydroxypropylcellulose) (HPC) 100 % of control

CCOC(=O)CC(c1ccccc1)C(C(=O)OCC)C(=O)OCC (centres undefined)
inactive: [1] 91 % of control | [2] 91 % of control | [3] 98 % of control

CCOC(=O)c1c(C)cc(C)cc1C
inactive: endpoint: mean survival time, dose: 50.0 mg/kg/injection, schedule: Q01DX001 (ip), vehicle: Klucel (hydroxypropylcellulose) (HPC) 99 % of control | [10] 102 % of control | [11] 96 % of control

Cc1cc(O)c(C(C)(C)C)cc1C(c1ccccc1)c1cc(C(C)(C)C)c(O)cc1C
inactive: [7] 93 % of control | [8] 93 % of control | [9] 95 % of control

CCN(CC)CCOC(=O)c1ccc(NC(=O)COc2ccc3ccccc3c2)cc1
inactive: endpoint: mean survival time, dose: 12.5 mg/kg/injection, schedule: Q01DX009 (ip), vehicle: other 98 % of control and 97 % of control | endpoint: mean survival time, dose: 25.0 mg/kg/injection, schedule: Q01DX009 (ip), vehicle: other 97 % of control | endpoint: mean survival time, dose: 50.0 mg/kg/injection, schedule: Q01DX009 (ip), vehicle: other 98 % of control and 93 % of control | endpoint: mean survival time, dose: 100.0 mg/kg/injection, schedule: Q01DX009 (ip), vehicle: other 94 % of control and 93 % of control | endpoint: mean survival time, dose: 200.0 mg/kg/injection, schedule: Q01DX009 (ip), vehicle: other 97 % of control and 93 % of control
